Data as given in patent publication US20250163057A1, “DCN-1 MODULATING COMPOUNDS AND METHODS OF USE THEREOF” (Cellarity, Inc., priority 2023, published 2025).

Legend:
[1] = test system: HBG1 mRNA and HbF protein in bone marrow cells; assay: Induction of fetal hemoglobin by hydroxyurea and I-73 in human CD34+ cell reconstituted immunodeficient mice, with analysis of synergistic effect; format: in vivo, NBSGW mice engrafted with human CD34+ cells
Description: The model employed for assessment of induction of fetal hemoglobin by I-73 and hydroxyurea involved the use of human stem cell-reconstituted immunodeficient mice. Specifically, three hundred thousand human CD34-positive cells from G-CSF-mobilized human peripheral blood […] (PBMCs) were injected into the tail veins of NOD.Cg-KitW-41J Tyr+Prkdcscid Il2rgtm1Wjl/ThomJ (NBSGW) mice (JAX Strain No. 026622) on day 0. Twelve weeks later, mice were checked for human cell engraftment by sampling PBMCs from blood taken from the tail vein and staining for expression of murine or human CD45 by flow cytometry. After removing from the study those mice having greater than 10% human cells or less than 1% human cells in their peripheral blood, the remaining mice were randomized into treatment groups based on the human cell percentage. Thirteen weeks post engraftment, treatment was initiated with either hydroxyurea, I-73, or a combination of both compounds. Hydroxyurea was formulated in PBS (pH 7.4) and I-73 was formulated in 5% Cremophor RH 40/20% hydroxypropyl-β-cyclodextrin (Crem-CD) daily. Mice received either PBS or hydroxyurea each morning and I-73 or Crem-CD each afternoon by oral gavage. After twenty days of daily treatment, the mice were euthanized and their bone marrow (femurs, tibia and critae) were individually collected for subsequent analysis.
Bone marrow cell pellets (total 500K cells) were lysed in 20 μL of RLT (QIAGEN, 79216) with 1×β-mercaptoethanol (Gibco, 21985-023) and H2O followed by hybridizations. Hybridizations were done in a total volume of 15 μL [3 μL of RNA lysate added to master mix of 12 μL probe A/B (purchased from IDT), capture probe/reporter probes (NanoString™, XT TagSet-24, 121000602), proteinase K (Fisher Scientific, E00491) and H2O suspended in hybridization buffer]. Samples were hybridized at 65° C. for 22 hr. Following hybridization, the tripartide complexes were purified, immobilized by nCounter Prep Station and imaged by Digital Analyzer (nCounter MAX/FLEX Analysis System), to generate digital counts of barcodes corresponding to each target in the multiplexed reaction. Labeled barcodes obtained from unamplified extracts were counted at 555 images or field of view (FOV). The barcode counts for each sample were recorded in Reporter Code Count (RCC) files that are imported into nSolver analysis software (provided with CodeSet by NS) for quality control evaluation.
To assess levels of fetal hemoglobin by AlphaLISA, cells (200 k bone marrow cells/well) were lysed by resuspending pellets in 200 μL of lysis buffer plus protease inhibitor cocktail (100×), mixed well and incubating at room temperature for 30 minutes on the plate shaker @300 RPMs. Samples were then diluted 1:10 in a new 96-well round bottom plate by taking 10 uL of lysate and adding 90 μL of AlphaLISA immunoassay buffer. To create the “reaction plate”, 20 μL of Acceptor Beads (50 ug/mL final concentration) was added to each well using a multi-channel pipet. 10 uL of diluted cell lysate was added to the wells and mixed well. 20 μL of AlphaLISA immunoassay buffer was added to each well. Biotinylated antibody (final concentration) was then added to each well. The reaction plate on then placed on a plate shaker at 300 rpm for one hour to incubate at room temperature. After the first incubation was complete, 50 μL of Donor Beads ([…] final concentration) was added to each well and mixed well, keeping the plate in the dark. The covered plate was placed on a shaker at 350 rpm for 30 minutes to incubate at room temperature. After incubation, all 100 uL in each to an AlphaPlate in the dark. Plates were read on a VictorNIVO using the “Alpha 96 Well” setting. Alpha reading was programmed as the default setting with emission at 700 ms and 575/110n. […]

[2] = test system: fetal hemoglobin gene expression (HBG1) in human erythroid progenitor cells; assay: Humanized mouse model: fetal hemoglobin mRNA (HBG1, HBB) in bone marrow by Nanostring; format: in vivo, NBSGW mice reconstituted with human CD34+ cells; details: humanized mouse model, human erythroid progenitor cells, dose not given at this place
Source text: (§1) Results: To evaluate induction of target cell activity in the bone marrow, a humanized mouse model was developed. This model entails the reconstitution of human hematopoietic progenitor cells within the bone marrow of immunodeficient nonirradiated NOD.Cg-KitW-41J Tyr^+ Prkdc^scid Il2rg^tmlwjl/ThomJ (NBSGW) strain recipient mice. These mice are competent to engraft and differentiate human erythroid progenitor cells that express human adult hemoglobin mRNA and protein subunits within bone marrow.
(§2) Based on these exposure results, humanized mice were treated with either the clinical standard of care compound, hydroxyurea (50 mg/kg; bid), or I-73, at 25 and 100 mg/kg (bid), by oral gavage over a three-week period. At the end of the treatment period, bone marrow was harvested for flow cytometry, as well as for assessment of HbF protein and fetal hemoglobin (HBG1) mRNA levels. Levels of both HbF protein and HBG1 mRNA were normalized to the percentage of human erythroid progenitor cells in the bone marrow of each mouse as determined by immunofluorescence staining for human Glycophorin A cell membrane expression. […] In addition, relative levels of fetal hemoglobin to those of potentially sickling-prone adult hemoglobin (HBB) was assessed.
(§3) Female, 6-week-old NOD.Cg-Kit^W-41J Tyr^+ Prkdc^scid Il2rg^tm1Wjl/ThomJ (NBSGW) mice (Jackson Laboratory strain #[…]) were used for these studies. The mice were acclimatized to laboratory conditions for 5 days prior to inoculation.
(§4) GCSF-mobilized human CD34+ cells were removed from liquid nitrogen storage, thawed in a 37° C. water bath and transferred quickly into a 50 mL conical tube. Cryovial was rinsed once with thaw buffer, 0.1% BSA in phosphate buffered saline (PBS), and buffer was transferred and combined with the original contents in the 50 mL conical tube. Next, doubling volumes of thaw buffer was added to the conical and gently swirled for ˜30 seconds to one minute until the volume in the conical was 32 mL. Cells and buffer were centrifuged at 300G for 8 minutes, and the supernatants were aspirated. Cells were counted by resuspending in 1 mL of thawing buffer per million of cells to a target concentration range of 0.5 to 2M/ml and counting with AOPI (1:1) on a luna cell counter to confirm the concentration of cells/mL. The cell concentration was adjusted to 3×10^6 cells/ml. For each mouse, 300 thousand cells in 0.1 ml were injected into the tail vein with a 25-gauge needle.
(§5) On day 56 after human cell adoptive transfer, whole blood was collected from each mouse by submandibular bleed and a 100 μL sample of EDTA whole blood was transferred to a 2 ml tube containing 1.8 mL ACK Lysing Buffer at room temperature (RT), and then inverted to mix. Samples were incubated at RT for 15 min in the dark to lyse. After lysis, samples are centrifuged at 500×g for 5 minutes at RT to enable supernatant decanting. Remaining cells were washed with 1 mL of PBS-0.5% BSA and centrifuged at 500×g for 5 minutes at 4° C. Supernatant was decanted and cells were stained with leukocyte markers (human and mouse CD45 antibodies; BD347464, BD557659) to confirm human cell engraftment. Mice having less than one percent, or greater than ten percent, human CD45 positive cells were excluded from the subsequent study. Remaining mice were then randomized into treatment groups based on percentage of human cell engraftment. Each treatment group included 10-11 mice.
(§6) Compound I-73 was dissolved in a 5% Cremophor RH40, 20% hydroxylpropyl-β-cyclodextrin solution. Hydroxyurea was solubilized in PBS. Formulations were prepared fresh daily. Commencing on day 84 post human cell engraftment, mice were treated by oral gavage with either I-73, hydroxyurea or their respective vehicles, for a period of three weeks using either once daily (QD) or twice daily (BID) dosing regimens. Mice were monitored daily for body weight and condition. […]

[3] = test system: fetal hemoglobin protein (HbF) in human erythroid progenitor cells; assay: Humanized mouse model: HbF protein in bone marrow by AlphaLISA; format: in vivo, NBSGW mice reconstituted with human CD34+ cells; details: humanized mouse model, human erythroid progenitor cells, dose not given at this place
Source text: as §1, §2, §3, §4, §5, §6

Question: What does the source list for NC(=O)NO [hydroxyurea]?
Answer: average increase of HbF % over vehicle ([1]; HU 75 mg/kg alone, WLS ANOVA estimate): 0.59; percentage of bone marrow cells expressing the erythroid cell marker glycophorin A ([1]; alone or in combination with I-73): dose-dependent increase; percentage of HbF protein by HPLC in GlyA-positive bone marrow cells ([1]; compared with vehicle treatment group, FIG. 7): significant increase; percentage of bone marrow cells expressing human CD45 ([1]; in vivo): did not alter; HbF level on a per erythroid progenitor (GlyA-positive) cell basis by AlphaLISA ([1]; treatment alone): less HbF induction; induction of fetal hemoglobin mRNA (HBG1) [2]: demonstrated to induce; induction of fetal hemoglobin mRNA (HBG1) ([2]; listed as Hydroxyurea): significantly induces; induction of fetal hemoglobin protein (HbF) [3]: demonstrated to induce; induction of fetal hemoglobin protein (HbF) ([3]; listed as Hydroxyurea): significantly induces
